Reference: ChEMBL document CHEMBL3217560, “Synthesis and binding affinities for sst receptors of cyclic peptoid SRIF-mimetics” (Medchemcomm, 2012)
Positions of bridges follow the written chain, without caps; N, C: chain ends. Non-standard residues stand in square brackets, D forms with d. Residues, ends and D or L forms follow the SMILES beside them. *: point of attachment. Threoninol(2S,3R) = C[C@@H](O)[C@H](CO)N*

Experiments:
[1] = target: Somatostatin receptor type 5 (Homo sapiens, UniProt P35346); test: Displacement of [125I]-somatostatin from human sst5 receptor after 2 hrs by beta scintillation counting analysis
[2] = target: Somatostatin receptor type 2 (Homo sapiens, UniProt P30874); test: Displacement of [125I]-somatostatin from human sst2a receptor after 2 hrs by beta scintillation counting analysis
[3] = target: Somatostatin receptor type 3 (Homo sapiens, UniProt P32745); test: Displacement of [125I]-somatostatin from human sst3 receptor after 2 hrs by beta scintillation counting analysis
[4] = target: Somatostatin receptor type 1 (Homo sapiens, UniProt P30872); test: Displacement of [125I]-somatostatin from human sst1 receptor after 2 hrs by beta scintillation counting analysis
[5] = target: Somatostatin receptor type 4 (Homo sapiens, UniProt P31391); test: Displacement of [125I]-somatostatin from human sst4 receptor after 2 hrs by beta scintillation counting analysis
Homo sapiens [6] = species on record: Homo sapiens; test: Selectivity ratio of Ki for human sst2a receptor to Ki or human sst4 receptor
Homo sapiens [7] = species on record: Homo sapiens; test: Selectivity ratio of Ki for human sst1 receptor to Ki for human sst4 receptor

Somatostatin receptor type 2, sequence (P30874 whole entry): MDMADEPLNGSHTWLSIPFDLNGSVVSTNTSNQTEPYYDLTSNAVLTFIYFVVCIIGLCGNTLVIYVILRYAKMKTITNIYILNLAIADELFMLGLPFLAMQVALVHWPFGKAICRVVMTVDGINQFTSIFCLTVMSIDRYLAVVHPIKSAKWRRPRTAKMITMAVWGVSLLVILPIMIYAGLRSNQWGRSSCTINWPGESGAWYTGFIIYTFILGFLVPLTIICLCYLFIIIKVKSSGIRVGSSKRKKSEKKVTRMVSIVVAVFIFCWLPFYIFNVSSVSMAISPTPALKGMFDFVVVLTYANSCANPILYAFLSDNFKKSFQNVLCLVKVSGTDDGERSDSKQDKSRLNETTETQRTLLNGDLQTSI
Somatostatin receptor type 1, sequence (P30872 whole entry): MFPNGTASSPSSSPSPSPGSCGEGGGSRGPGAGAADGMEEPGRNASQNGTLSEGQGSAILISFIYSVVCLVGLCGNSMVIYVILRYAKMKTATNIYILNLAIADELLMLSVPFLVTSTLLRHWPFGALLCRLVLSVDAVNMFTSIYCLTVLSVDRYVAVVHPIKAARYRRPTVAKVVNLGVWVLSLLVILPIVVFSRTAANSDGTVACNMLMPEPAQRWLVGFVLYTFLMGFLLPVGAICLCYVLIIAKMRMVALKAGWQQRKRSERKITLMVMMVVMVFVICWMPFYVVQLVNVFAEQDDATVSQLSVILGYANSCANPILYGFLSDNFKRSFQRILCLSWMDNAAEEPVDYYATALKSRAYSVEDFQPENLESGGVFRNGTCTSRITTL
Somatostatin receptor type 4, sequence (P31391 whole entry): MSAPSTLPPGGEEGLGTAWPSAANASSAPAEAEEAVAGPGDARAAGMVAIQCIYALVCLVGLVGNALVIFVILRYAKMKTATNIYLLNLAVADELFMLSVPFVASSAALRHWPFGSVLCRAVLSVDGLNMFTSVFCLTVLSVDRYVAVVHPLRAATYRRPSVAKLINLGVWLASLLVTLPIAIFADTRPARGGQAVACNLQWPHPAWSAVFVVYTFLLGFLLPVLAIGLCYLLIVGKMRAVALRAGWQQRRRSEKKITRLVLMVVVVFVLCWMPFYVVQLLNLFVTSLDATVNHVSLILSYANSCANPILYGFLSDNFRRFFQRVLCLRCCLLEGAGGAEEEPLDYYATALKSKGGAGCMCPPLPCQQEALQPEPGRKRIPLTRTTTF
Somatostatin receptor type 3, sequence (P32745 whole entry): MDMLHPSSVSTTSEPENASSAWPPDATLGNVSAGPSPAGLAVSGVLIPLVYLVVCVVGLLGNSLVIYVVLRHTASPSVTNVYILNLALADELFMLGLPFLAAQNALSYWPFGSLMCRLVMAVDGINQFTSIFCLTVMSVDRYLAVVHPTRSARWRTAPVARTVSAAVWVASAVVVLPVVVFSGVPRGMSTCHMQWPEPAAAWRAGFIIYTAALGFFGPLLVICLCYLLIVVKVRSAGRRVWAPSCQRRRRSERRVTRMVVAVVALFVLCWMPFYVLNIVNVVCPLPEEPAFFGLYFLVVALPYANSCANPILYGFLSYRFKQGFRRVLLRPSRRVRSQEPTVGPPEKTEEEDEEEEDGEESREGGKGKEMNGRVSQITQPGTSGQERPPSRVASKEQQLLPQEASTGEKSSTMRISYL
Somatostatin receptor type 5, sequence (P35346 whole entry): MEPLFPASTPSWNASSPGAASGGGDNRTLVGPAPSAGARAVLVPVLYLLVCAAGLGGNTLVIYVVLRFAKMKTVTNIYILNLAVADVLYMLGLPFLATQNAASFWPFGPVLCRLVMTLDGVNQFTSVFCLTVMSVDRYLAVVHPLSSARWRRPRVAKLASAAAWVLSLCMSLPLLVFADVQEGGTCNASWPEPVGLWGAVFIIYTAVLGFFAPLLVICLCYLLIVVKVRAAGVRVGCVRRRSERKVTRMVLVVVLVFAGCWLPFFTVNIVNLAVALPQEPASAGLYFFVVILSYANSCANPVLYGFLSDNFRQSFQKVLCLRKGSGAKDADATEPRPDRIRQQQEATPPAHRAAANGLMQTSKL

Row | Ki [1] [µM] | inhibition [1] | Ki [2] [µM] | inhibition [2] | Ki [3] [µM] | inhibition [3] | Ki [4] [µM] | inhibition [4] | Ki [5] [µM] | inhibition [5] | Ratio Ki (Homo sapiens [6]) | Ratio Ki (Homo sapiens [7]) | Compound
1 | 11 | Dose-dependent effect | 55 | Dose-dependent effect | 2.7 | Dose-dependent effect | 12 | Dose-dependent effect | 12 | Dose-dependent effect |  |  | COC(=O)CCN(Cc1ccccc1)C(=O)CCN(C[C@@H](C)O)C(=O)CCN(CCCCN)C(=O)CCN(CCc1c[nH]c2ccccc12)C(=O)CCN(Cc1ccccc1)C(C)=O
2 | 9.5 | Dose-dependent effect | 176 | Dose-dependent effect | 17 | Dose-dependent effect | 153 | Dose-dependent effect | 20 | Dose-dependent effect |  |  | C[C@@H](O)CN1CCC(=O)N(Cc2ccccc2)CCC(=O)N(CCc2c[nH]c3ccccc23)CC(=O)N(CCCCN)CCC1=O
3 | 13.2 | Dose-dependent effect | 110 | Dose-dependent effect | 3.1 | Dose-dependent effect | 16 | Dose-dependent effect | 21 | Dose-dependent effect |  |  | COC(=O)CCN(Cc1ccccc1)C(=O)CCN(C[C@@H](C)O)C(=O)CCN(CCCCN)C(=O)CN(CCc1c[nH]c2ccccc12)C(=O)CCN(Cc1ccccc1)C(C)=O
4 | 1.7 | Dose-dependent effect | 44 | Dose-dependent effect | 4.6 | Dose-dependent effect | 8.2 | Dose-dependent effect | 10 | Dose-dependent effect |  |  | C[C@@H](O)CN1CCC(=O)N(Cc2ccccc2)CCC(=O)N(Cc2ccccc2)CCC(=O)N(CCc2c[nH]c3ccccc23)CCC(=O)N(CCCCN)CCC1=O
5 | 28 | Dose-dependent effect | 198 | Dose-dependent effect | 22 | Dose-dependent effect | 102 | Dose-dependent effect | 4.9 | Dose-dependent effect | 40 | 20 | C[C@@H](O)CN1CCC(=O)N(Cc2ccccc2)CCC(=O)N(CCc2c[nH]c3ccccc23)CCC(=O)N(CCCCN)CCC1=O
6 | 2.1 | Dose-dependent effect | 27 | Dose-dependent effect | 2.4 | Dose-dependent effect | 16 | Dose-dependent effect | 7.2 | Dose-dependent effect |  |  | C[C@@H](O)CN1CCC(=O)N(Cc2ccccc2)CCC(=O)N(Cc2ccccc2)CCC(=O)N(CCc2c[nH]c3ccccc23)CC(=O)N(CCCCN)CCC1=O

Row | Compound | Ki [1] [µM] | inhibition [1] | Ki [2] [µM] | inhibition [2] | Ki [3] [µM] | inhibition [3] | Ki [4] [µM] | inhibition [4] | Ki [5] [µM] | inhibition [5] | Ratio Ki (Homo sapiens [6]) | Ratio Ki (Homo sapiens [7])
7 | C[C@@H](O)[C@H](CO)NC(=O)[C@@H]1CSSC[C@H](NC(=O)[C@H](N)Cc2ccccc2)C(=O)N[C@@H](Cc2ccccc2)C(=O)N[C@H](Cc2c[nH]c3ccccc23)C(=O)N[C@@H](CCCCN)C(=O)N[C@@H]([C@@H](C)O)C(=O)N1 (H-[dF]CF[dW]KTC-{Threoninol(2S,3R)}; disulfide 2-7) |  |  |  | Dose-dependent effect |  | Dose-dependent effect |  | Dose-dependent effect |  | Dose-dependent effect |  | 
